Data from patent US20090036472A1, “AZABICYCLO DERIVATIVES AS ANTI-INFLAMMATORY AGENTS” (priority 2005, published 2009).

System: TNF-α release from LPS-stimulated human peripheral blood mononuclear cells
Experiment: Cell based assay for TNF-α release, LPS stimulation of human PBMNC's
Settings: PBMC, LPS 20 ng/ml, overnight, ELISA, collective range for the listed compounds, units given within the value (μM to nM), read-out: IC50 (TNF-α release; printed as IC50 for p38 inhibitory activity)
Description: Cell based Assay for TNF-α release
Method of Isolation of Human Peripheral Blood Mononuclear Cells:
Human whole blood was collected in vacutainer tubes containing EDTA as an anti coagulant. A blood sample (7 ml) was carefully layered over 5 ml PMN Cell Isolation Medium (Robbins Scientific) in a 15 ml round bottom centrifuge tubes. The sample was centrifuged at 450-500×g for 30-35 minutes in a swing-out rotor at room temperature. After centrifugation the top band of cells were removed and washed 3 times with PBS w/o calcium or magnesium. The cells were centrifuged at 400×g for 10 minutes at room temperature. The cells were resuspended in Macrophage Serum Free Medium (Gibco BRL) at concentration of 2 million cells/ml.
LPS Stimulation of Human PBMNC's:
PBM cells (0.1 ml; 2 million/ml) were co-incubated with 0.1 ml of compound (10-0.41 μM, final concentration) for 1 hour in flat bottom 96 well microtiter plate. Compounds were dissolved in DMSO initially and diluted in TCM for a final concentration of 0.1% DMSO. LPS (Cal biochem, 20 ng/ml, final concentration) was then added at volume of 0.010 ml. Cultures were incubated overnight at 37° C.). Supernatant were then removed and tested by ELISA for TNF-α release. Viability was analyzed using MTT. After 0.1 ml supernatant was collected, 0.1 ml of 0.25 mg/ml of MTT was added to remaining 0.1 ml of cells. The cells were incubated at 37° C. for 2-4 hours, then the O.D was measured at 490-650 nm.
The TNF-α levels released in the culture medium was quantitated by ELISA. Inhibitory potency was expressed as IC50.

SMILES	IC50
O=c1c(Oc2ccccc2F)cc2cnc(NN3CC4CCCC4C3)nc2n1C1CC1 (stereo not drawn) [Compound No. 59, 6-(2-Fluorophenoxy)-2-(3-azabicyclo[3.3.0]oct-3-yl-amino)-8-cyclopropyl-pyrido[2,3-d]pyrimidin-7(8H)-one]	0.14 to 3 µM
Cn1c(=O)c(-c2ccccc2[N+](=O)[O-])cc2cnc(NN3CC4CCCC4C3)nc21 (stereo not drawn) [Compound No. 69, 6-(2-Nitrophenyl)-2-(3-azabicyclo [3.3.0]oct-3-yl-amino)-8-methyl-pyrido[2,3-d]pyrimidin-7(8H)-one]	0.14 to 3 µM
CCCCS(=O)(=O)NCCn1c(=O)c(-c2ccccc2C)cc2cnc(NN3CC4CCCC4C3)nc21 (stereo not drawn) [Compound No. 40, N-{2-[2-(3-azabicyclo[3.3.0]oct-3-yl-amino)-6-(2-methylphenyl)-7-oxopyrido[2,3-d]pyrimidin-8(7H)-yl]ethyl}butane-1-sulfonamide]	0.14 to 3 µM
CCOC(=O)C(C)n1c(=O)c(-c2ccccc2C)cc2cnc(NN3CC4CCCC4C3)nc21 (stereo not drawn) [Compound No. 21, Ethyl 2-[6-(2-methylphenyl)-2-(3-azabicyclo [3.3.0]oct-3-yl-amino)-7-oxopyrido[2,3-d]pyrimidin-8(7H)-yl]propanoate]	0.14 to 3 µM
COCCn1c(=O)c(-c2ccccc2C)cc2cnc(NN3CC4CCCC4C3)nc21 (stereo not drawn) [Compound No. 50, 6-(2-Methylphenyl)-2-(3-azabicyclo[3.3.0]oct-3-yl-amino)-8-(2-methoxyethyl)-pyrido[2,3-d]pyrimidin-7(8H)-one]	0.14 to 3 µM
Cn1c(=O)c(-c2ccccc2Cl)cc2cnc(NN3CC4CCCC4C3)nc21 (stereo not drawn) [Compound No. 1, 6-(2-Chlorophenyl)-2-(3-azabicyclo[3.3.0]oct-3-yl-amino)-8-methylpyrido[2,3-d]pyrimidin-7(8H)-one]	0.14 to 3 µM

Further lines, results first:

IC50	SMILES
0.14 to 3 µM	CCOCCn1c(=O)c(-c2ccccc2Cl)cc2cnc(NN3CC4CCCC4C3)nc21 (stereo not drawn) [Compound No. 25, 6-(2-Chlorophenyl)-2-(3-azabicyclo[3.3.0]oct-3-yl-amino)-8-(2-ethoxyethyl)pyrido[2,3-d]pyrimidin-7(8H)-one]
0.14 to 3 µM	CCOC(=O)Cn1c(=O)c(-c2ccccc2C)cc2cnc(NN3CC4CCCC4C3)nc21 (stereo not drawn) [Compound No. 44, Ethyl[2-(3-azabicyclo[3.3.0]oct-3-yl-amino)-6-(2-methylphenyl)-7-oxopyrido[2,3-d]pyrimidin-8(7H)-yl]acetate]
0.14 to 3 µM	CCOCCn1c(=O)c(-c2ccccc2C)cc2cnc(NN3CC4CCCC4C3)nc21 (stereo not drawn) [Compound No. 51, 6-(2-Methylphenyl)-2-(3-azabicyclo[3.3.0]oct-3-yl-amino)-8-(2-ethoxyethyl)pyrido[2,3-d]pyrimidin-7(8H)-one]
0.14 to 3 µM	Cn1c(=O)c(-c2ccc(F)cc2Cl)cc2cnc(NN3CC4CCCC4C3)nc21 (stereo not drawn) [Compound No. 71, 6-(2-Chloro-4-fluorophenyl)-2-(3-azabicyclo [3.3.0]oct-3-yl-amino)-8-methylpyrido[2,3-d]pyrimidin-7(8H)-one]
0.14 to 3 µM	Cn1c(=O)c(-c2c(Cl)cccc2Cl)cc2cnc(NN3CC4CCCC4C3)nc21 (stereo not drawn) [Compound No. 68, 6-(2,6-Dichlorophenyl)-2-(3-azabicyclo[3.3.0]oct-3-yl-amino)-8-methylpyrido[2,3-d]pyrimidin-7(8H)-one]
0.14 to 3 µM	Cc1ccccc1-c1cc2cnc(NN3CC4CCCC4C3)nc2n(CC(=O)NC2CCC2)c1=O (stereo not drawn) [Compound No. 47, N-Cyclobutyl-2-[2-(3-azabicyclo[3.3.0]oct-3-yl-amino)-6-(2-methylphenyl)-7-oxopyrido[2,3-d]pyrimidin-8(7H)-yl]acetamide]
0.14 to 3 µM	O=c1c(-c2ccccc2F)cc2cnc(NN3CC4CCCC4C3)nc2n1CC1CC1 (stereo not drawn) [Compound No. 23, 6-(2-Fluorophenyl)-2-(3-azabicyclo[3.3.0]oct-3-yl-amino)-8-(cyclopropylmethyl)-pyrido[2,3-d]pyrimidin-7(8H)-one]
0.14 to 3 µM	O=c1c(-c2ccccc2Cl)cc2cnc(NN3CC4CCCC4C3)nc2n1C1CC1 (stereo not drawn) [Compound No. 52, 6-(2-Chlorophenyl)-2-(3-azabicyclo[3.3.0]oct-3-yl-amino)-8-cyclopropyl-pyrido[2,3-d]pyrimidin-7(8H)-one]
0.14 to 3 µM	CCOC(=O)C(C)n1c(=O)c(-c2ccccc2F)cc2cnc(NN3CC4CCCC4C3)nc21 (stereo not drawn) [Compound No. 20, Ethyl 2-[6-(2-fluorophenyl)-2-(3-azabicyclo[3.3.0]oct-3-yl-amino)-7-oxopyrido[2,3-d]pyrimidin-8(7H)-yl]propanoate]
0.14 to 3 µM	O=c1c(-c2ccccc2F)cc2cnc(NN3CC4CCCC4C3)nc2n1C1CCCC1 (stereo not drawn) [Compound No. 22, 6-(2-Fluorophenyl)-2-(3-azabicyclo[3.3.0]oct-3-yl-amino)-8-(cyclopentyl)pyrido[2,3-d]pyrimidin-7(8H)-one]

Molecular target: activated p38 (Homo sapiens, UniProt Q16539)
Sequence (Q16539 whole entry): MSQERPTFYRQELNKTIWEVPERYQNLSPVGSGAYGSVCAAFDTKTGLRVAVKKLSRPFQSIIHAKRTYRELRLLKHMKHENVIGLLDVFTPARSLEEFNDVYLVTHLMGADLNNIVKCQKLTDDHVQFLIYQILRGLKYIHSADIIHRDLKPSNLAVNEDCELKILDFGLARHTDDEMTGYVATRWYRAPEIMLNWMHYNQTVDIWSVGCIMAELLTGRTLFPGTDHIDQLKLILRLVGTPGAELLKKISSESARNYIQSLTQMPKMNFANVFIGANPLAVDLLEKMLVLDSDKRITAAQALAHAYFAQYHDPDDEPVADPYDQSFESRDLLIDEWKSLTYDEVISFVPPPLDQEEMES
Experiment: p38 inhibition assay: inhibition of phosphorylation of EGF receptor peptide
Type: biochemical
Settings: compound behaviour in the assay
Description: p38 Inhibition Assays—Inhibition of Phosphorylation of EGF Receptor Peptide
This assay was carried out in the presence of 10 mM MgCl2, 25 mM β-glycerophosphate, 10% glycerol and 100 mM HEPES buffer at pH 7.6. For a typical IC50 determination, a stock solution was prepared containing all of the above components and activated p38 (5 nM). The stock solution was aliquoted into vials. A fixed volume of DMSO or inhibitor in DMSO (final concentration of DMSO in reaction was 5%) was introduced to each vial, mixed and incubated for 15 minutes at room temperature.
EGF receptor peptide, […], a phosphoryl acceptor in p38-catalysed kinase reaction (1), was added to each vial to a final concentration of 200 μM. The kinase reaction was initiated with ATP (100 μm) and the vials were incubated at 30C. After 30 minutes, the reactions were quenched with equal volume of 10% trifluoroacetic acid (TFA).
The phosphorylated peptide was quantified by HPLC analysis. Separation of the phosphorylated peptide from the unphosphorylated peptide was achieved on a reverse phase column (Deltapak, 5 μM, C18 100D, part no. 011795) with a binary gradient of water and acetonitrile, each containing 0.1% TFA. IC50 (concentration of inhibitor yielding 50% inhibition) was determined by plotting the % activity remaining against inhibitor concentration.

observation in the p38 enzyme assay	SMILES
formed a precipitate	O=c1c(-c2ccccc2F)cc2cnc(NN3CC4CCCC4C3)nc2n1Cc1ccc(F)cc1 (stereo not drawn) [Compound No. 13, 6-(2-Fluorophenyl)-2-(3-azabicyclo[3.3.0]oct-3-yl-amino)-8-(4-fluorobenzyl)-pyrido[2,3-d]pyrimidin-7(8H)-one]

System: not given
Experiment: not given
Settings: not given

melting point	SMILES
69.8 to 79.8 °C	Cc1ccccc1-c1cc2cnc(NN3CC4CCCC4C3)nc2n(C)c1=O (stereo not drawn) [Compound No. 2, 6-(2-Methylphenyl)-2-(3-azabicyclo[3.3.0]oct-3-yl-amino)-8-methylpyrido[2,3-d]pyrimidin-7(8H)-one]
